Source: patent US11685746B2, “Heteroaryl compounds for treating Huntington's disease” (PTC THERAPEUTICS, INC., priority 2018, dated 2023)

Test system: Endogenous Huntingtin Protein
Assay: Endogenous Huntingtin Protein Assay (MSD plates, MW1 or MAB2166 capture antibody)
Format: cell-based
Conditions: Table 1
Description: Endogenous Huntingtin Protein Assay
Meso Scale Discovery (MSD) 96-well or 384-well plates were coated overnight at 4° C. with MW1 (expanded polyglutamine) or MAB2166 monoclonal antibody (for capture) at a concentration of 1 μg/mL in PBS (30 μL per well). Plates were then washed three times with 300 μL wash buffer (0.05% Tween-20 in PBS) and blocked (100 μL blocking buffer; 5% BSA in PBS) for 4-5 hours at room temperature with rotational shaking and then washed three times with wash buffer.
Samples (25 μL) were transferred to the antibody-coated MSD plate and incubated overnight at 4° C. After removal of the lysates, the plate was washed three times with wash buffer, and 25 μL of #5656S (Cell signaling; rabbit monoclonal) secondary antibody (diluted to 0.25 μg/mL in 0.05% Tween-20 in blocking buffer) was added to each well and incubated with shaking for 1 Hour at room temperature. Following incubation with the secondary antibody, the wells were rinsed with wash buffer after which 25 μL of goat anti-rabbit SULFO TAG secondary detection antibody (required aspect of the MSD system) (diluted to 0.25 μg/mL in 0.05% Tween-20 in blocking buffer) was added to each well and incubated with shaking for 1 hour at room temperature. After rinsing three times with wash buffer, 150 μL of read buffer T with surfactant (MSD) were added to each empty well, and the plate was imaged on a SI 6000 imager (MSD) according to manufacturers' instructions provided for 96- or 384-well plates.

Q: CN1C[C@@H]2CN(c3nc4sc(-c5ccc(-c6cn[nH]c6)cc5O)nc4s3)C[C@@H]2C1 [Compound 211, 2-{5-[(3aR,6aS)-5-methylhexahydropyrrolo[3,4-c]pyrrol-2(1H)-yl][1,3]thiazolo[5,4-d][1,3]thiazol-2-yl}-5-(1H-pyrazol-4-yl)phenol] was tested. Which IC50 did it give?
A: Its IC50 is 1000 to 3000 nM.

Q: Which IC50 does the source give for CN(c1nc2sc(-c3ccc(-c4cn[nH]c4)cn3)nc2s1)C1CC(C)(C)NC(C)(C)C1 [Compound 133, N-methyl-5-[5-(1H-pyrazol-4-yl)pyridin-2-yl]-N-(2,2,6,6-tetramethylpiperidin-4-yl)[1,3]thiazolo[5,4-d][1,3]thiazol-2-amine] here?
A: The IC50 was ≤ 100 nM.

Q: For CN(c1nc2sc(-n3ccc(-c4cn[nH]c4)cc3=O)nc2s1)[C@H]1CCCNC1 [Compound 169, 1-(5-{methyl[(3S)-piperidin-3-yl]amino}[1,3]thiazolo[5,4-d][1,3]thiazol-2-yl)-4-(1H-pyrazol-4-yl)pyridin-2(1H)-one], which IC50 is on record?
A: The IC50 was ≤ 100 nM.

Q: With Cc1ncc(-c2cnc(-c3nc4sc(N(C)[C@@H]5C[C@H]6CC[C@@H](C5)N6)nc4s3)c(O)c2)s1 [Compound 199, 2-(5-{[(1R,3s,5S)-8-azabicyclo[3.2.1]octan-3-yl](methyl)amino}[1,3]thiazolo[5,4-d][1,3]thiazol-2-yl)-5-(2-methyl-1,3-thiazol-5-yl)pyridin-3-ol] as the compound, how does the IC50 read?
A: The IC50 was ≤ 100 nM.

Q: How did the IC50 turn out when CN(c1nc2sc(-c3cc(F)c(-c4cn[nH]c4)c(F)c3)nc2s1)C1CC(C)(C)NC(C)(C)C1 [Compound 5, 5-[3,5-difluoro-4-(1H-pyrazol-4-yl)phenyl]-N-methyl-N-(2,2,6,6-tetramethylpiperidin-4-yl)[1,3]thiazolo[5,4-d][1,3]thiazol-2-amine] was run?
A: The IC50 was ≤ 100 nM.

Q: For CN(c1nc2sc(-c3ncc(-c4cn[nH]c4)c4ccn(C)c34)nc2s1)C1CCNCC1 [Compound 113, N-methyl-5-[1-methyl-4-(1H-pyrazol-4-yl)-1H-pyrrolo[2,3-c]pyridin-7-yl]-N-(piperidin-4-yl)[1,3]thiazolo[5,4-d][1,3]thiazol-2-amine], which IC50 is on record?
A: Its IC50 is 100 to 500 nM.

Q: For CN(c1nc2sc(-c3nccc4cc[nH]c34)nc2s1)[C@@H]1C[C@H]2CC[C@@H](C1)N2 [Compound 160, N-[(1R,3s,5S)-8-azabicyclo[3.2.1]octan-3-yl]-N-methyl-5-(1H-pyrrolo[2,3-c]pyridin-7-yl)[1,3]thiazolo[5,4-d][1,3]thiazol-2-amine], which IC50 is on record?
A: The IC50 was 100 to 500 nM.

Q: CC1CC(N(C)c2nc3sc(-c4ncc(-c5cn[nH]c5)c5cc[nH]c45)nc3s2)CCN1C (centres unmarked) [Compound 152, N-(1,2-dimethylpiperidin-4-yl)-N-methyl-5-[4-(1H-pyrazol-4-yl)-1H-pyrrolo[2,3-c]pyridin-7-yl][1,3]thiazolo[5,4-d][1,3]thiazol-2-amine] was tested. Which IC50 did it give?
A: Its IC50 is ≤ 100 nM.

Q: For CN(c1nc2sc(-c3ccc(-c4cn[nH]c4)nn3)nc2s1)C1CC(C)(C)NC(C)(C)C1 [Compound 167, N-methyl-5-[6-(1H-pyrazol-4-yl)pyridazin-3-yl]-N-(2,2,6,6-tetramethylpiperidin-4-yl)[1,3]thiazolo[5,4-d][1,3]thiazol-2-amine], which IC50 is on record?
A: The IC50 was 100 to 500 nM.

Q: CN(c1nc2sc(-c3ccc(-c4cn[nH]c4)nc3)nc2s1)[C@@H]1C[C@H]2CC[C@@H](C1)N2 [Compound 173, N-[(1R,3s,5S)-8-azabicyclo[3.2.1]octan-3-yl]-N-methyl-5-[6-(1H-pyrazol-4-yl)pyridin-3-yl][1,3]thiazolo[5,4-d][1,3]thiazol-2-amine] was tested. Which IC50 did it give?
A: Its IC50 is ≤ 100 nM.

Q: For Cc1cc(-c2cn3cc(C4CCNCC4)nc3s2)cc2cn(C)nc12 [Compound 2, 2,7-dimethyl-5-[6-(piperidin-4-yl)imidazo[2,1-b][1,3]thiazol-2-yl]-2H-indazole], which IC50 is on record?
A: Its IC50 is ≤ 100 nM.

Q: Which IC50 does the source give for CN(c1nc2sc(-c3ncc(Br)n4ccnc34)nc2s1)C1CCNCC1 [Compound 117, 5-(5-bromoimidazo[1,2-a]pyrazin-8-yl)-N-methyl-N-(piperidin-4-yl)[1,3]thiazolo[5,4-d][1,3]thiazol-2-amine] here?
A: Its IC50 is 1000 to 3000 nM.

Q: C[C@@H]1C[C@@H](N(C)c2nc3sc(-c4cnc(-c5cn[nH]c5)cn4)nc3s2)CCN1 [Compound 93, N-methyl-N-[(2R,4S)-2-methylpiperidin-4-yl]-5-[5-(1H-pyrazol-4-yl)pyrazin-2-yl][1,3]thiazolo[5,4-d][1,3]thiazol-2-amine] was tested. Which IC50 did it give?
A: Its IC50 is ≤ 100 nM.

Q: CN(c1nc2sc(-c3ncc(-c4cn[nH]c4)c4cc[nH]c34)nc2s1)C1CC(C)(C)NC(C)(C)C1 [Compound 159, N-methyl-5-[4-(1H-pyrazol-4-yl)-1H-pyrrolo[2,3-c]pyridin-7-yl]-N-(2,2,6,6-tetramethylpiperidin-4-yl)[1,3]thiazolo[5,4-d][1,3]thiazol-2-amine] was tested. Which IC50 did it give?
A: The IC50 was ≤ 100 nM.

Q: With CN(c1nc2sc(-c3ccc(-c4ccn(C)c(=O)c4)cc3O)nc2s1)C1CCNCC1 [Compound 36, 4-(3-hydroxy-4-{5-[methyl(piperidin-4-yl)amino][1,3]thiazolo[5,4-d][1,3]thiazol-2-yl}phenyl)-1-methylpyridin-2(1H)-one] as the compound, how does the IC50 read?
A: Its IC50 is 100 to 500 nM.

Q: How did the IC50 turn out when Oc1cc(-c2cn[nH]c2)cnc1-c1nc2sc(N3CC4(CC5CCC(C4)N5)C3)nc2s1 [Compound 197, 5-(1H-pyrazol-4-yl)-2-[5-(spiro[8-azabicyclo[3.2.1]octane-3,3′-azetidin]-1′-yl)[1,3]thiazolo[5,4-d][1,3]thiazol-2-yl]pyridin-3-ol] was run?
A: Its IC50 is 1000 to 3000 nM.

Q: For Cc1cc(-c2nc3sc(C4CCNCC4)nc3s2)cc2cn(C)nc12 [Compound 16, 2,7-dimethyl-5-[5-(piperidin-4-yl)[1,3]thiazolo[5,4-d][1,3]thiazol-2-yl]-2H-indazole], which IC50 is on record?
A: Its IC50 is ≤ 100 nM.

Q: CN(c1nc2sc(-c3ccc(-c4cn[nH]c4)cc3O)nc2s1)[C@H]1CCNC1 [Compound 54, 2-(5-{methyl[(3S)-pyrrolidin-3-yl]amino}[1,3]thiazolo[5,4-d][1,3]thiazol-2-yl)-5-(1H-pyrazol-4-yl)phenol] was tested. Which IC50 did it give?
A: Its IC50 is ≤ 100 nM.

Q: How did the IC50 turn out when c1cc2c(-c3cn[nH]c3)cnc(-c3nc4sc(N5CCC56CCCNC6)nc4s3)c2[nH]1 (centres unmarked) [Compound 134, 7-[5-(1,6-diazaspiro[3.5]nonan-1-yl)[1,3]thiazolo[5,4-d][1,3]thiazol-2-yl]-4-(1H-pyrazol-4-yl)-1H-pyrrolo[2,3-c]pyridine] was run?
A: The IC50 was ≤ 100 nM.

Q: Which IC50 does the source give for Oc1cc(-c2cn[nH]c2)cnc1-c1nc2sc(N3CCC34CCNCC4)nc2s1 [Compound 189, 2-[5-(1,7-diazaspiro[3.5]nonan-1-yl)[1,3]thiazolo[5,4-d][1,3]thiazol-2-yl]-5-(1H-pyrazol-4-yl)pyridin-3-ol] here?
A: The IC50 was 100 to 500 nM.

Q: CN(c1nc2sc(-n3ccc(-n4cc(F)cn4)cc3=O)nc2s1)[C@H]1C[C@]2(C)CC[C@](C)(C1)N2 [Compound 148, 1-(5-{[(1R,3s,5S)-1,5-dimethyl-8-azabicyclo[3.2.1]octan-3-yl](methyl)amino}[1,3]thiazolo[5,4-d][1,3]thiazol-2-yl)-4-(4-fluoro-1H-pyrazol-1-yl)pyridin-2(1H)-one] was tested. Which IC50 did it give?
A: The IC50 was ≤ 100 nM.

Q: For C[C@H]1C[C@H](N(C)c2nc3sc(-c4cnc(-n5ccnc5)cn4)nc3s2)CCN1 [Compound 66, 5-[5-(1H-imidazol-1-yl)pyrazin-2-yl]-N-methyl-N-[(2S,4R)-2-methylpiperidin-4-yl][1,3]thiazolo[5,4-d][1,3]thiazol-2-amine], which IC50 is on record?
A: The IC50 was ≤ 100 nM.

Q: With CCn1cc(-c2cnc(-c3nc4sc(N(C)C5CC(C)(C)NC(C)(C)C5)nc4s3)c(O)c2)cn1 [Compound 50, 5-(1-ethyl-1H-pyrazol-4-yl)-2-{5-[methyl(2,2,6,6-tetramethylpiperidin-4-yl)amino][1,3]thiazolo[5,4-d][1,3]thiazol-2-yl}pyridin-3-ol] as the compound, how does the IC50 read?
A: The IC50 was 100 to 500 nM.

Q: For CN(c1nc2sc(-c3ncc(-c4cn[nH]c4)n4ccnc34)nc2s1)C1CCNCC1 [Compound 101, N-methyl-N-(piperidin-4-yl)-5-[5-(1H-pyrazol-4-yl)imidazo[1,2-a]pyrazin-8-yl][1,3]thiazolo[5,4-d][1,3]thiazol-2-amine], which IC50 is on record?
A: Its IC50 is 1000 to 3000 nM.

Q: How did the IC50 turn out when C[C@H]1C[C@H](Oc2nc3sc(-c4ncc(-c5cn[nH]c5)c5cc[nH]c45)nc3s2)CCN1 [Compound 109, 7-(5-{[(2S,4R)-2-methylpiperidin-4-yl]oxy}[1,3]thiazolo[5,4-d][1,3]thiazol-2-yl)-4-(1H-pyrazol-4-yl)-1H-pyrrolo[2,3-c]pyridine] was run?
A: The IC50 was ≤ 100 nM.

Q: With CN(c1nc2sc(-c3ncc(-c4ccn(C)c(=O)c4)cc3O)nc2s1)[C@@H]1C[C@H]2CC[C@@H](C1)N2 [Compound 191, 6-(5-{[(1R,3s,5S)-8-azabicyclo[3.2.1]octan-3-yl](methyl)amino}[1,3]thiazolo[5,4-d][1,3]thiazol-2-yl)-5-hydroxy-1′-methyl[3,4′-bipyridin]-2′(1′H)-one] as the compound, how does the IC50 read?
A: The IC50 was ≤ 100 nM.

Q: CN(c1nc2sc(-c3ncc(-c4cn[nH]c4)c4cc[nH]c34)nc2s1)C1CCN2CCCC2C1 (centres unmarked) [Compound 123, N-methyl-N-{5-[4-(1H-pyrazol-4-yl)-1H-pyrrolo[2,3-c]pyridin-7-yl][1,3]thiazolo[5,4-d][1,3]thiazol-2-yl}octahydroindolizin-7-amine] was tested. Which IC50 did it give?
A: Its IC50 is ≤ 100 nM.

Q: CN(c1nc2sc(-n3ccc(Br)cc3=O)nc2s1)[C@@H]1C[C@H]2CC[C@@H](C1)N2 [Compound 171, 1-(5-{[(1R,3s,5S)-8-azabicyclo[3.2.1]octan-3-yl](methyl)amino}[1,3]thiazolo[5,4-d][1,3]thiazol-2-yl)-4-bromopyridin-2(1H)-one] was tested. Which IC50 did it give?
A: The IC50 was ≤ 100 nM.

Q: How did the IC50 turn out when CN(c1nn2cc(-c3ccc(-c4cn[nH]c4)cc3O)nc2s1)C1CC(C)(C)NC(C)(C)C1 [Compound 17, 2-{2-[methyl(2,2,6,6-tetramethylpiperidin-4-yl)amino]imidazo[2,1-b][1,3,4]thiadiazol-6-yl}-5-(1H-pyrazol-4-yl)phenol] was run?
A: Its IC50 is 500 to 1000 nM.
